US9242984B2, “Pyrazolyl derivatives as Syk inhibitors” (Merck Sharp & Dohme Corp., priority 2012, dated 2016)

Target: T1, recombinant human Syk (GST-hSyk fusion protein) (Homo sapiens, UniProt P43405)
T1 construct: purchased Carna Biosciences 08-176
Test: Homogeneous Time-Resolved Fluorescence (HTRF) assay for the recombinant human Syk enzyme
Assay type: biochemical
Details: 10-dose titration, 25 μM ATP; read-out: rhSYK IC50
How it was run: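 GST-hSyk (5 pM) preincubated 10 min with compound (0.1% DMSO) in 15 mM Tris-HCl pH 7.5, 2 mM DTT; reaction started with 250 nM biotinylated peptide, 5 mM Mg, 25 μM ATP, 45 min, room temperature. EDTA quench, Eu-anti-phosphotyrosine/SA-APC HTRF read after 30 min; IC50 from 10-dose titration (10 μM–0.508 nM), four-parameter fit.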

IC50 [nM]	Compound
7.4	Cc1cc(Nc2nccc(C(F)F)n2)cc(-c2cnn(C3CCCC(C)(O)C3(C)O)c2)c1 (stereo not drawn) [Example 22.12, 3-[4-(3-{[4-(difluoromethyl)pyrimidin-2-yl]amino}-5-methylphenyl)-1H-pyrazol-1-yl]-1,2-dimethylcyclohexane-1,2-diol]

Same assay, conditions: IC50 class; 10-dose titration, 25 μM ATP; read-out: rhSYK Activity

IC50 [nM]	Compound
100 to 1000	Cc1cc(Nc2nccc(C(F)(F)F)n2)cc(-c2n[nH]c3ccccc23)c1 [Example 2.47, N-[3-(1H-indazol-3-yl)-5-methylphenyl]-4-(trifluoromethyl)-pyrimidin-2-amine]
≤ 100	COCCOC(=O)NC(C)(C)Cn1cc(-c2cc(C)cc(Nc3nccc(C(F)F)n3)c2)cn1 [Example 27.12, 2-methoxyethyl {2-[4-(3-{[4-(difluoromethyl)pyrimidin-2-yl]amino}-5-methylphenyl)-1H-pyrazol-1-yl]-1,1-dimethylethyl}carbamate]
≤ 100	Cc1cc(Nc2nccc(C(F)F)n2)cc(-c2cnn(C(C)C3CNC(=O)C3)c2)c1 (stereo not drawn) [Example 2.67, 4-{1-[4-(3-{[4-(difluoromethyl)pyrimidin-2-yl]amino}-5-methylphenyl)-1H-pyrazol-1-yl]ethyl}pyrrolidin-2-one]
100 to 1000	Cc1cc(Nc2nccc(C(F)(F)F)n2)cc(-n2cc(C3(O)CCC(C(=O)O)CC3)cn2)c1 (stereo not drawn) [Example 19.10, 4-hydroxy-4-[1-(3-methyl-5-{[4-(trifluoromethyl)pyrimidin-2-yl]amino}phenyl)-1H-pyrazol-4-yl]cyclohexanecarboxylic acid]
100 to 1000	Cc1cc(Nc2cc(C)c(Cl)cn2)nc(-c2cnn(CCC(=O)O)c2)c1 [Example 1.27, 3-(4-{6-[(5-chloro-4-methylpyridin-2-yl)amino]-4-methylpyridin-2-yl}-1H-pyrazol-1-yl)propanoic acid]
100 to 1000	Cc1cc(-c2cnn(CC(O)CF)c2)cc(N(CC(O)CF)c2nccc(C(F)(F)F)n2)c1 (racemic) [Example 5.13, 1-fluoro-3-({3-[1-(3-fluoro-2-hydroxy-propyl)-1H-pyrazol-4-yl]-5-methyl-phenyl}-[4-(trifluoromethyl)-pyrimidin-2-yl]-amino)propan-2-ol]
≤ 100	Cc1cc(Nc2nccc(C(F)(F)F)n2)cc(-c2cnn(CC(C)(O)CC#N)c2)c1 (stereo not drawn) [Example 20.3, 3-hydroxy-3-methyl-4-[4-(3-methyl-5-{[4-(trifluoromethyl)pyrimidin-2-yl]amino}phenyl)-1H-pyrazol-1-yl]butanenitrile]
≤ 100	Cc1cc(Nc2nccc(C(F)(F)F)n2)cc(-c2cnn(C3CCC(C(N)=O)CC3)c2)c1 (stereo not drawn) [Example 8.18, 4-[4-(3-methyl-5-{[4-(trifluorometh-yl)pyrimidin-2-yl]amino}phenyl)-1H-pyrazol-1-yl]-cyclohexane-carboxamide]
≤ 100	O=C(O)C1CCC(n2cc(-c3cc(Cl)cc(Nc4nccc(C(F)(F)F)n4)c3)cn2)CC1 (stereo not drawn) [Example 1.61, 4-[4-(3-chloro-5-{[4-(trifluoromethyl)pyrimidin-2-yl]amino}phenyl)-1H-pyrazol-1-yl]cyclohexanecarboxylic acid]
≤ 100	COc1nc(Nc2cc(C)cc(-c3cnn(CC4CNC(=O)O4)c3)c2)ncc1Cl (stereo not drawn) [Example 2.23, 5-[(4-{3-[(5-chloro-4-methoxypyrimidin-2-yl)amino]-5-methylphenyl}-1H-pyrazol-1-yl)methyl]-1,3-oxazolidin-2-one]
≤ 100	Cc1cc(Nc2nccc(C(F)(F)F)n2)cc(-c2cnn(CC3(O)CCOC(C)(C)C3)c2)c1 (stereo not drawn) [Example 12.10, 2,2-dimethyl-4-{[4-(3-methyl-5-{[4-(trifluoro-methyl)pyrimidin-2-yl]amino}phenyl)-1H-pyrazol-1-yl]methyl}-tetrahydro-2H-pyran-4-ol]
≤ 100	Cc1cc(Nc2nccc(C(C)C)n2)cc(-c2cnn(CC3CNC(=O)O3)c2)c1 (stereo not drawn) [Example 2.29, 5-{[4-(3-methyl-5-{[4-(1-methylethyl)pyrimidin-2-yl]amino}phenyl)-1H-pyrazol-1-yl]methyl}-1,3-oxazolidin-2-one]
≤ 100	Cc1cc(Nc2cc(C(F)F)ccn2)nc(-c2cnn(CC3CNC(=O)O3)c2)c1 (stereo not drawn) [Example 3.83, 5-{[4-(6-{[4-(difluoromethyl)pyridin-2-yl]amino}-4-methylpyridin-2-yl)-1H-pyrazol-1-yl]methyl}-1,3-oxazolidin-2-one]
≤ 100	Cc1cc(Nc2nccc(C(F)F)n2)cc(-c2cnn(C3CCCC(C)(O)C3(C)O)c2)c1 (stereo not drawn) [Example 22.12, 3-[4-(3-{[4-(difluoromethyl)pyrimidin-2-yl]amino}-5-methylphenyl)-1H-pyrazol-1-yl]-1,2-dimethylcyclohexane-1,2-diol]
≤ 100	Cc1cc(Nc2nccc(C(F)F)n2)cc(-c2cnn(CC3CC(=O)NC3C)c2)c1 (stereo not drawn) [Example 2.79, 4-{[4-(3-{[4-(difluoromethyl)pyrimidin-2-yl]amino}-5-methylphenyl)-1H-pyrazol-1-yl]methyl}-5-methylpyrrolidin-2-one]
≤ 100	Cc1cc(Nc2nccc(C(F)F)n2)cc(-c2cnn(CC(O)Cn3cccn3)c2)c1 (stereo not drawn) [Example 5.25, 1-[4-(3-{[4-(difluoromethyl)pyrimidin-2-yl]amino}-5-methylphenyl)-1H-pyrazol-1-yl]-3-(1H-pyrazol-1-yl)propan-2-ol]

IC50 [nM]	Compound
≤ 100	Cc1cc(Nc2nccc(C(F)(F)F)n2)cc(-c2cnn(CC(C)(O)C(N)=O)c2)c1 (racemic) [Example 8.11, 2-hydroxy-2-methyl-3-[4-(3-methyl-5-{[4-(trifluorometh-yl)pyrimidin-2-yl]amino}-phenyl)-1H-pyrazol-1-yl]propanamide]
≤ 100	Cc1cc(Nc2cc(C(F)(F)F)ccn2)nc(-c2cnn(CC(=O)OC(C)(C)C)c2)c1 [Example 1.30, tert-butyl [4-(4-methyl-6-{[4-(trifluoromethyl)pyridin-2-yl]amino}pyridin-2-yl)-1H-pyrazol-1-yl]acetate]
≤ 100	Cc1cc(Nc2nccc(C(F)(F)F)n2)cc(-c2cnn(CC3(O)CCN(CC(=O)O)CC3)c2)c1 [Example 12.15, (4-hydroxy-4-{[4-(3-methyl-5-{[4-(trifluoromethyl)-pyrimidin-2-yl]amino}-phenyl)-1H-pyrazol-1-yl]methyl}piperidin-1-yl)acetic acid]
≤ 100	Cc1cc(Nc2nccc(C(C)(F)F)n2)cc(-c2cnn(CC3OC(=O)NC3(C)C)c2)c1 (stereo not drawn) [Example 3.104, 5-{[4-(3-{[4-(1,1-difluoroethyl)pyrimidin-2-yl]amino}-5-methylphenyl)-1H-pyrazol-1-yl]methyl}-4,4-dimethyl-1,3-oxazolidin-2-one]
≤ 100	Cc1cc(Nc2nccc(C(F)(F)F)n2)cc(-c2cnn(Cc3nnc(C)o3)c2)c1 [Example 3.24, N-(3-methyl-5-{1-[(5-methyl-1,3,4-oxadiazol-2-yl)methyl]-1H-pyrazol-4-yl}phenyl)-4-(trifluoromethyl)pyrimidin-2-amine]
≤ 100	COc1nc(Nc2cc(C)cc(-c3cnn(CC4CNC(=O)O4)c3)c2)ncc1Cl (stereo not drawn) [Example 2.28, 5-[(4-{3-[(5-chloro-4-methoxypyrimidin-2-yl)amino]-5-methylphenyl}-1H-pyrazol-1-yl)methyl]-1,3-oxazolidin-2-one]
≤ 100	Cc1cc(Nc2nccc(C(F)F)n2)cc(-c2cnn(CC(C)(C)NC(=O)OCCF)c2)c1 [Example 27.10, 2-fluoroethyl {2-[4-(3-{[4-(difluoromethyl)pyrimidin-2-yl]amino}-5-methylphenyl)-1H-pyrazol-1-yl]-1,1-dimethylethyl}carbamate]
≤ 100	Cc1cc(Nc2nccc(C(F)(F)F)n2)cc(-c2cnn(CC3CNC(=O)O3)c2)c1 (stereo not drawn) [Example 2.45, 5-{[4-(3-methyl-5-{[4-(trifluoromethyl)-pyrimidin-2-yl]amino}phenyl)-1H-pyrazol-1-yl]methyl}-1,3-oxazolidin-2-one]
≤ 100	Cc1cc(Nc2cc(C(F)F)ccn2)nc(-c2cnn(C(C)C3CNC(=O)O3)c2)c1 (stereo not drawn) [Example 3.87, 5-{1-[4-(6-{[4-(difluoromethyl)pyridin-2-yl]amino}-4-methylpyridin-2-yl)-1H-pyrazol-1-yl]ethyl}-1,3-oxazolidin-2-one]
≤ 100	Cc1cc(Nc2cc(C(F)F)ccn2)nc(-c2cnn(C(C)C3CNC(=O)C3)c2)c1 (stereo not drawn) [Example 1.63, 4-{1-[4-(6-{[4-(difluoromethyl)pyridin-2-yl]amino}-4-methylpyridin-2-yl)-1H-pyrazol-1-yl]ethyl}pyrrolidin-2-one]
100 to 1000	CCOC(=O)CCc1cnn(-c2cc(C)cc(Nc3nccc(C)n3)c2)c1 [Example 19.6, Ethyl 3-(1-{3-methyl-5-[(4-methyl-pyrimidin-2-yl)amino]-phenyl}-1H-pyrazol-4-yl)propanoate]
≤ 100	Cc1cc(Nc2cc(C(F)(F)F)ccn2)nc(-c2cn[nH]c2)c1 [Example 1.12, 4-methyl-6-(1H-pyrazol-4-yl)-N-[4-(trifluoromethyl)pyridin-2-yl]pyridin-2-amine]
≤ 100	Cc1cc(Nc2ncc(Cl)c(C)n2)cc(-c2cnn(CCC(N)=O)c2)c1 [Example 2.13, 3-(4-{3-[(5-chloro-4-methylpyrimidin-2-yl)amino]-5-methylphenyl}-1H-pyrazol-1-yl)propanamide]
≤ 100	Cc1cc(Nc2nccc(C(F)(F)F)n2)cc(-c2cnn(C[C@H](O)CC#N)c2)c1 [Example 3.2, (3R)-3-hydroxy-4-[4-(3-methyl-5-{[4-(trifluoromethyl)-pyrimidin-2-yl]amino}phenyl)-1H-pyrazol-1-yl]-butanenitrile]
100 to 1000	CCOC(=O)CCc1cnn(-c2cc(C)cc(Nc3nccc(C(F)(F)F)n3)c2)c1 [Example 19.2, Ethyl 3-[1-(3-methyl-5-{[4-(trifluoromethyl)-pyrimidin-2-yl]amino}phenyl)-1H-pyrazol-4-yl]propanoate]
≤ 100	Cc1cc(Nc2nccc(C(F)F)n2)cc(-c2cnn(C(C)C3CNC(=O)C3)c2)c1 (stereo not drawn) [Example 2.68, 4-{1-[4-(3-{[4-(difluoromethyl)pyrimidin-2-yl]amino}-5-methylphenyl)-1H-pyrazol-1-yl]ethyl}pyrrolidin-2-one]
